According to ChEMBL document CHEMBL1201862, “PubChem BioAssay data set” (2004):
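Tested at 5 concentrations; 48 h exposure; 96-well plates; endpoints linearly interpolated, else capped at highest concentration. GI50 marks 50% less growth.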 Activity calls are given as the source filed them. Rule as the data show it: active = GI50 up to about 1.1 µM and inactive = higher.

What was measured:
Test in all cases: NCI-60 cell line screen, 48 h
786-0 = tested on: 786-0
A549 = tested on: A549
ACHN = tested on: ACHN
BT-549 = tested on: BT-549
CAKI-1 = tested on: CAKI-1
CCRF-CEM = tested on: CCRF-CEM
COLO 205 = tested on: COLO 205
DU-145 = tested on: DU-145
EKVX = tested on: EKVX
HCC 2998 = tested on: HCC 2998
HCT-116 = tested on: HCT-116
HCT-15 = tested on: HCT-15
HL-60 = tested on: HL-60
HOP-62 = tested on: HOP-62
HOP-92 = tested on: HOP-92
HT-29 = tested on: HT-29
Hs-578T = tested on: Hs-578T
IGROV-1 = tested on: IGROV-1
K562 = tested on: K562
KM12 = tested on: KM12
LOX IMVI = tested on: LOX IMVI
M14 = tested on: M14
MCF7 = tested on: MCF7
MDA-MB-231 = tested on: MDA-MB-231
MDA-MB-435 = tested on: MDA-MB-435
MDA-N = tested on: MDA-N
MOLT-4 = tested on: MOLT-4
Malme-3M = tested on: Malme-3M
NCI-H226 = tested on: NCI-H226
NCI-H23 = tested on: NCI-H23
NCI-H522 = tested on: NCI-H522
NCI/ADR-RES = tested on: NCI/ADR-RES
OVCAR-3 = tested on: OVCAR-3
OVCAR-4 = tested on: OVCAR-4
OVCAR-5 = tested on: OVCAR-5
OVCAR-8 = tested on: OVCAR-8
PC-3 = tested on: PC-3
RPMI-8226 = tested on: RPMI-8226
RXF 393 = tested on: RXF 393
SF-268 = tested on: SF-268
SF-295 = tested on: SF-295
SF-539 = tested on: SF-539
SK-MEL-28 = tested on: SK-MEL-28
SK-MEL-2 = tested on: SK-MEL-2
SK-MEL-5 = tested on: SK-MEL-5
SK-OV-3 = tested on: SK-OV-3
SN12C = tested on: SN12C
SNB-19 = tested on: SNB-19
SNB-75 = tested on: SNB-75
SW-620 = tested on: SW-620
T47D = tested on: T47D
TK-10 = tested on: TK-10
U-251 = tested on: U-251
UACC-257 = tested on: UACC-257
UACC-62 = tested on: UACC-62
UO-31 = tested on: UO-31
NCI-H460 = tested on: NCI-H460

Q: Which results are given for CCOC(=O)C(NC(=O)c1ccccc1)(Nc1cc(C)on1)C(F)(F)F (stereo unspecified)?
A: GI50 (786-0): > 100 µM (inactive); GI50 (A549): > 100 µM (inactive); GI50 (ACHN): > 100 µM (inactive); GI50 (BT-549): > 100 µM (inactive); GI50 (CAKI-1): > 100 µM (inactive); GI50 (CCRF-CEM): > 100 µM (inactive); GI50 (COLO 205): > 100 µM (inactive); GI50 (DU-145): > 100 µM (inactive); GI50 (EKVX): > 100 µM (inactive); GI50 (HCC 2998): > 100 µM (inactive); GI50 (HCT-116): > 100 µM (inactive); GI50 (HCT-15): > 100 µM; GI50 (HL-60): > 100 µM (inactive); GI50 (HOP-62): > 100 µM (inactive); GI50 (HOP-92): > 100 µM (inactive); GI50 (HT-29): > 100 µM (inactive); GI50 (Hs-578T): > 100 µM (inactive); GI50 (IGROV-1): > 100 µM (inactive); GI50 (K562): > 100 µM (inactive); GI50 (KM12): > 100 µM (inactive); GI50 (LOX IMVI): > 100 µM (inactive); GI50 (M14): > 100 µM (inactive); GI50 (MCF7): > 100 µM (inactive); GI50 (MDA-MB-231): 10.9 µM (inactive); GI50 (MDA-MB-435): > 100 µM (inactive); GI50 (MDA-N): > 100 µM (inactive); GI50 (MOLT-4): > 100 µM (inactive); GI50 (Malme-3M): > 100 µM (inactive); GI50 (NCI-H226): > 100 µM (inactive); GI50 (NCI-H23): > 100 µM (inactive); GI50 (NCI-H522): > 100 µM (inactive); GI50 (NCI/ADR-RES): > 100 µM (inactive); GI50 (OVCAR-3): > 100 µM (inactive); GI50 (OVCAR-4): > 100 µM (inactive); GI50 (OVCAR-5): > 100 µM (inactive); GI50 (OVCAR-8): > 100 µM (inactive); GI50 (PC-3): > 100 µM (inactive); GI50 (RPMI-8226): > 100 µM (inactive); GI50 (RXF 393): > 100 µM (inactive); GI50 (SF-268): > 100 µM (inactive); GI50 (SF-295): > 100 µM (inactive); GI50 (SF-539): > 100 µM (inactive); GI50 (SK-MEL-28): > 100 µM (inactive); GI50 (SK-MEL-2): > 100 µM (inactive); GI50 (SK-MEL-5): > 100 µM (inactive); GI50 (SK-OV-3): > 100 µM (inactive); GI50 (SN12C): > 100 µM (inactive); GI50 (SNB-19): > 100 µM (inactive); GI50 (SNB-75): > 100 µM (inactive); GI50 (SW-620): > 100 µM (inactive); GI50 (T47D): > 100 µM (inactive); GI50 (TK-10): > 100 µM (inactive); GI50 (U-251): > 100 µM (inactive); GI50 (UACC-257): > 100 µM (inactive); GI50 (UACC-62): > 100 µM (inactive); GI50 (UO-31): > 100 µM (inactive)

Q: How did the GI50 (786-0) turn out when O=NN1C(c2ccccc2)CC(=NO)CC1c1ccccc1 (stereo unspecified) was run?
A: The GI50 was > 100 µM (inactive).

Q: What about the GI50 (A549) of the same compound?
A: The GI50 was > 100 µM (inactive).

Q: What about the GI50 (ACHN) of the same compound?
A: The GI50 was > 100 µM (inactive).

Q: And the GI50 (BT-549)?
A: The GI50 was > 100 µM (inactive).

Q: And the GI50 (CAKI-1)?
A: Its GI50 is 68.4 µM (inactive).

Q: What about the GI50 (COLO 205) of the same compound?
A: The GI50 was > 100 µM (inactive).

Q: What about the GI50 (DU-145) of the same compound?
A: The GI50 was > 100 µM (inactive).

Q: And the GI50 (EKVX)?
A: The GI50 was > 100 µM (inactive).

Q: What about the GI50 (HCC 2998) of the same compound?
A: The GI50 was 79.1 µM (inactive).

Q: And the GI50 (HCT-116)?
A: The GI50 was 71.1 µM (inactive).

Q: And the GI50 (HCT-15)?
A: The GI50 was > 100 µM.

Q: And the GI50 (HL-60)?
A: The GI50 was 74.5 µM (inactive).

Q: And the GI50 (HOP-62)?
A: Its GI50 is > 100 µM (inactive).

Q: What about the GI50 (HOP-92) of the same compound?
A: Its GI50 is > 100 µM (inactive).

Q: And the GI50 (HT-29)?
A: Its GI50 is 20.5 µM (inactive).

Q: What about the GI50 (Hs-578T) of the same compound?
A: The GI50 was > 100 µM (inactive).

Q: What about the GI50 (IGROV-1) of the same compound?
A: The GI50 was > 100 µM (inactive).

Q: And the GI50 (K562)?
A: Its GI50 is 43.8 µM (inactive).

Q: What about the GI50 (KM12) of the same compound?
A: Its GI50 is > 100 µM (inactive).

Q: What about the GI50 (LOX IMVI) of the same compound?
A: Its GI50 is > 100 µM (inactive).

Q: And the GI50 (M14)?
A: Its GI50 is > 100 µM (inactive).

Q: And the GI50 (MCF7)?
A: Its GI50 is > 100 µM (inactive).

Q: What about the GI50 (MDA-MB-231) of the same compound?
A: The GI50 was > 100 µM (inactive).

Q: What about the GI50 (MDA-MB-435) of the same compound?
A: The GI50 was > 100 µM (inactive).

Q: And the GI50 (MDA-N)?
A: The GI50 was > 100 µM (inactive).

Q: What about the GI50 (MOLT-4) of the same compound?
A: Its GI50 is 46.3 µM (inactive).

Q: And the GI50 (Malme-3M)?
A: The GI50 was > 100 µM (inactive).

Q: And the GI50 (NCI-H226)?
A: Its GI50 is > 100 µM (inactive).

Q: And the GI50 (NCI-H23)?
A: The GI50 was > 100 µM (inactive).

Q: What about the GI50 (NCI-H460) of the same compound?
A: Its GI50 is > 100 µM (inactive).

Q: And the GI50 (NCI-H522)?
A: Its GI50 is > 100 µM (inactive).

Q: And the GI50 (NCI/ADR-RES)?
A: The GI50 was > 100 µM (inactive).

Q: What about the GI50 (OVCAR-3) of the same compound?
A: The GI50 was > 100 µM (inactive).

Q: And the GI50 (OVCAR-4)?
A: The GI50 was > 100 µM (inactive).

Q: And the GI50 (OVCAR-8)?
A: Its GI50 is > 100 µM (inactive).

Q: And the GI50 (PC-3)?
A: Its GI50 is 70.3 µM (inactive).

Q: What about the GI50 (RPMI-8226) of the same compound?
A: Its GI50 is 68.1 µM (inactive).

Q: What about the GI50 (RXF 393) of the same compound?
A: Its GI50 is > 100 µM (inactive).

Q: What about the GI50 (SF-268) of the same compound?
A: The GI50 was > 100 µM (inactive).

Q: And the GI50 (SF-295)?
A: Its GI50 is > 100 µM (inactive).

Q: What about the GI50 (SF-539) of the same compound?
A: Its GI50 is > 100 µM (inactive).

Q: And the GI50 (SK-MEL-28)?
A: Its GI50 is > 100 µM (inactive).

Q: What about the GI50 (SK-MEL-2) of the same compound?
A: The GI50 was 6.65 µM (inactive).

Q: And the GI50 (SK-MEL-5)?
A: The GI50 was > 100 µM (inactive).

Q: And the GI50 (SK-OV-3)?
A: The GI50 was > 100 µM (inactive).

Q: What about the GI50 (SN12C) of the same compound?
A: Its GI50 is > 100 µM (inactive).

Q: And the GI50 (SNB-19)?
A: The GI50 was > 100 µM (inactive).

Q: What about the GI50 (SNB-75) of the same compound?
A: The GI50 was 88.5 µM (inactive).

Q: What about the GI50 (SW-620) of the same compound?
A: Its GI50 is > 100 µM (inactive).

Q: What about the GI50 (T47D) of the same compound?
A: The GI50 was > 100 µM (inactive).

Q: What about the GI50 (TK-10) of the same compound?
A: The GI50 was > 100 µM (inactive).

Q: What about the GI50 (U-251) of the same compound?
A: Its GI50 is > 100 µM (inactive).

Q: And the GI50 (UACC-257)?
A: Its GI50 is > 100 µM (inactive).

Q: And the GI50 (UACC-62)?
A: Its GI50 is > 100 µM (inactive).

Q: And the GI50 (UO-31)?
A: The GI50 was > 100 µM (inactive).
